Test results taken from patent US11999956B2, “Targeted therapy composition and its use for suppressing breast cancer cell proliferation, migration or invasion” (NATIONAL CHENG KUNG UNIVERSITY, priority 2021, dated 2024).

Assays:
SKBR3 cells = experiment: IC50 of Metformin in SKBR3/Vec and SKBR3/siEMP3 cells; format: cell-based, human; details: 72 hours post treatment; SKBR3/siEMP3 vs SKBR3/Vec
Text: (§1) Please refer to FIGS. 12A to 12B. The potential impact of EMP3 on sensitivity to Metformin in SKBR3 cells in vitro was illustrated therein. […] That means knocking down of EMP3 raises survival rate of breast cancer cells upon treatment of Metformin, which may imply a desensitizing effect of EMP3 on breast cancer cells in upon Metformin treatment. […] As well-known in the field of endeavor, interference of cross-talk between AMPK and Wnt/β-catenin signaling pathways may decelerate cell growth of breast cancer cells. In example 7, the intervention level of Metformin to AMPK in SKBR3/Vec and SKBR3/siEMP3 cancer cells was verified.

AMPK-α1 and AMPK-α2 = experiment: Western blot, effect of Metformin on AMPK signaling pathway in SKBR3 cells; format: cell-based, human
Procedure: Cells were lyzed in a radioimmunoprecipitation assay (RIPA) lysis buffer (Thermo Fisher Scientific Inc., Waltham, MA) and protease inhibitors (Thermo Fisher Scientific Inc., Waltham, MA) were used for protein extraction. Briefly, a total of 30 μg of protein was prepared on a 6 to 12% SDS-PAGE and transferred to a 0.2 to 0.45 μm polyvinylidene difluoride membrane (Stratagene, La Jolla, CA) and blocked by 5% milk (non-fat milk) in Tris Buffered Saline Buffer with Tween 20 (TBST). The membrane was hybridized with primary antibody at 4° C. overnight. The following day, after being washed with TBST for three times, membranes were incubated with secondary antibodies (anti-rabbit or anti-mouse IgG antibody) for 1 hour at room temperature. Detection of protein bands was performed using enhanced chemiluminescence system (Amersham ECL Plus; GE Healthcare, Piscataway, NJ).
as §1, with “In example 7, the intervention level of Metformin to AMPK in SKBR3/Vec and SKBR3/siEMP3 cancer cells was verified.” left out

Structure (SMILES): CN(C)C(=N)N=C(N)N [Metformin]
- IC50 values for Metformin in SKBR3/siEMP3 cells relative to vector control (SKBR3 cells): higher
- AMPK-α1 expression (AMPK-α1 and AMPK-α2): down-regulated
- AMPK-α2 expression (AMPK-α1 and AMPK-α2): down-regulated
